Assay results published in article PMC6345779, “Hypoculoside, a sphingoid base-like compound from Acremonium disrupts the membrane integrity of yeast cells” (Scientific Reports, 2019).
Blank lines part the entries; values can stand above or below the compound they belong to.

What was measured:
[1] = tested on: vps35Δ, pep8Δ, vps20Δ, vps27Δ and vps36Δ strains; test: Single-mutant sensitivity growth assay of deletion strains in YPD medium; format: cell-based, Saccharomyces cerevisiae; conditions: for growth of the 5 hypoculoside-sensitive mutants compared with wild type strain: 20 µM, vps35, pep8, vps20, vps27, vps36
Description: Figure 3 Homozygous profiling of hypoculoside in Saccharomyces cerevisiae. (A) logFC (Fitness Coefficient) was plotted against P-value for the 3702 mutants that were analyzed by HOP. The more negative the logFC value of a mutant, more sensitive is the mutant to hypoculoside. Mutants that have logFC < −0.5 and P-value < 0.05 are indicated by red dots and the remaining strains are indicated as blue dots. For the sake of clarity, gene names of only a subset of the top hits are indicated in the plot. (B) Wild type strain BY4743 and 24 deletion strains that were sensitive to hypoculoside in the HOP assay, were grown in the YPD medium in the presence of either DMSO or hypoculoside at different concentrations (0, 0.6, 1.3, 2.7 and 5.5 µM). Normalized growth at the different concentrations of hypoculoside tested after 24 hours of incubation at 30 °C is plotted for each strain.
To test the validity of our HOP data, we first identified 336 ‘hypoculoside-sensitive’ mutants (Supplementary Table S1) that had at least a 1.4-fold inhibitory effect on their growth rate (i.e. logFC ≤ −0.5) with a P-value ≤ 0.05. From the list of 336 mutants, we chose 24 mutants that represent different Gene Ontology categories (see below) and tested their sensitivity to hypoculoside. Eighteen of the total 24 mutants were sensitive to hypoculoside confirming the HOP data (Fig. 3B). We also tested mutants that were predicted to be resistant to hypoculoside (positive logFC ≥ 0.5 and P-value ≤ 0.05). But none of them were resistant to hypoculoside in comparison to wild type strain in the single-mutant sensitivity assays (data not shown).
(§1) Figure 5 Structure-activity studies of hypoculoside. (A) Wild type strain (BY4743), vps35Δ, pep8Δ, vps20Δ, vps27Δ and vps36Δ strains were grown in YPD medium in the presence of hypoculoside or hypoculine at the indicated concentrations. Normalized growth at the different concentrations of hypoculoside and hypoculine tested after 24 hours of incubation at 30 °C is plotted for each strain. (B) Wild type strain (BY4743), vps35Δ, pep8Δ, vps20Δ, vps27Δ and vps36Δ strains were grown in YPD medium in the presence of hypoculoside or phytosphingosine or dihydrosphingosine at the indicated concentrations. Normalized growth at the different concentrations of hypoculoside, phytosphingosine and dihydrosphingosine tested after 24 hours of incubation at 30 °C is plotted for each strain.

[2] = tested on: Wild type strain (BY4743); test: Rescue of myriocin-induced growth inhibition in yeast; format: cell-based, Saccharomyces cerevisiae; conditions: for rescue of myriocin-induced inhibition: added at 10 μM
Description: Myriocin is an inhibitor of Serine palmitoyltransferase (SPT), which catalyzes the first step in the synthesis of sphingolipid biosynthesis. Addition of PHS or DHS can rescue inhibition caused by myriocin[28]. We tested whether hypoculoside can rescue the toxicity of myriocin–treated cells.
Wild type strain (BY4743) was grown in YPD medium containing different concentrations of myriocin and either phytosphingosine (PHS) or dihydrosphingosine (DHS) or hypoculoside (HYP) at the indicated concentrations. Normalized growth at the different concentrations after 24 hours of incubation at 30 °C is plotted for the various cultures.

[3] = tested on: Saccharomyces cerevisiae diploid wild-type strain (BY4743); test: Growth inhibition of wild type Saccharomyces cerevisiae in YPD medium (96-well, OD600); format: cell-based; conditions: for concentration that completely inhibited the growth of wild type yeast cells: 24 hours at 30 °C (Fig. 5B); for inhibitory concentration relative to inhibitory concentration of hypoculoside: wild type yeast cells, higher than hypoculoside
Description: as §1
Susceptibility of Candida albicans strain SC5314 to hypoculoside and amphotericin B was determined by a broth microdilution assay using Clinical Laboratory Standards Institute (CLSI) guidelines. Cells grown to exponential phase in YPD medium (1% Yeast extract, 2% Bacto peptone and 2% glucose) were harvested, washed and resuspended in RPMI 1640 medium at a density of 2×10^3 cells/mL. RPMI 1640 medium with L-glutamine without sodium bicarbonate (Sigma) was buffered with 0.165 M morpholinepropanesulfonic acid (MOPS) to a pH of 7.0. Two-fold dilutions of hypoculoside and amphotericin B were prepared such that final concentration of DMSO was 1% in all cultures. Cell suspension was distributed in microtiter plate (200 µL/well) and incubated at 35 °C with 220 rpm for 24 h. The Saccharomyces cerevisiae diploid wild-type strain (BY4743) was used for determining the Inhibitory Concentration (IC) of hypoculoside. Frozen yeast cells were allowed to recover on YPD agar plates and grown in YPD medium for nine generations (OD600 nm ≤ 2). Cells were diluted to OD600 nm of 0.0625 in YPD medium. 200 μL of the diluted yeast culture was transferred into the 96-well microtiter plate having 2-fold serially diluted concentrations of hypoculoside. Cells were incubated in a microplate reader for 16–24 hours at 30 °C with shaking. IC of hypoculoside was computed by comparing the growth of treated versus control cells.

Staphylococcus aureus = tested on: Staphylococcus aureus; design: method as in PMID 23128426; conditions: also disrupt cell membrane; cited from earlier work
BY4743 cells = test: Propidium iodide (PI)-staining assay of plasma membrane integrity; format: cell-based, Saccharomyces cerevisiae; conditions: 1.8, 3.5 and 5.3 µM, 30′ and 2 hours
Description: Figure 8 Hypoculoside but not hypoculine disrupts the membrane integrity of yeast cells. (A) Wild type yeast cells pre-treated with either DMSO or hypoculoside (5.4 μM) were exposed to FM 4-64FX. Uptake of FM 4-64FX after 0′, 30′ and 120′ was analyzed by fluorescence microscopy of fixed cells. (B) Yeast cells were incubated with either DMSO or hypoculoside or hypoculine at different concentrations (1.8, 3.5 and 5.3 µM) for 30′ and 2 hours. They were then treated with propidium iodide (PI) and percentage of PI-staining cells was assayed by fluorescence microscopy. Representative images of cells visualized by bright field and fluorescence microscopy are shown along with quantification of PI-staining cells (N = 100 cells) in (C).
We then tested whether hypoculoside causes membrane leakage using the membrane impermeant dye propidium iodide (PI). […] We then incubated the cells with PI and visualized its uptake by fluorescence microscopy. […]
BY4743 cells (OD600 nm ≈ 1) were exposed to various concentrations of hypoculoside or hypoculine or DMSO in YPD for 30′ and 2 hours. […] PI uptake by cells was assayed by bright-field and fluorescence microscopy [Excitation/Emission (nm): 535/617] and the percentage of PI-staining cells (N ≥ 100) was calculated.

[4] = tested on: vacuoles of wild type yeast cells; test: FM 4-64 fluorescence microscopy of vacuolar structure; format: cell-based, Saccharomyces cerevisiae; conditions: 11.6 µM, FM 4-64 pre-labelled wild type cells, N = 100 cells
Description: As several vacuolar transport mutants were sensitive to hypoculoside (Fig. 3), we examined the effect of hypoculoside on the vacuolar structure of yeast cells. We incubated wild type yeast cells with FM 4–64, a dye that stains the vacuolar membranes, for 1 hour. We then washed off the excess FM 4–64 from the medium and transferred the cells into fresh medium with either hypoculoside or hypoculine or DMSO. […] In contrast, about 50% of 11.6 µM hypoculoside-treated cells had defective vacuoles (Fig. 7B). However, only 3% of 11.6 µM hypoculine-treated cells had defective vacuoles. Thus, the effect of hypoculoside and hypoculine on vacuolar structure correlates with their inhibitory activities.
Figure 7 Hypoculoside but not hypoculine disrupts the vacuolar structure of yeast cells. Wild type yeast cells containing vacuoles pre-labelled with the lipophilic dye FM 4-64 were exposed to either DMSO or hypoculoside or hypoculine at the indicated concentrations for 1 hour. Effects of the compounds on vacuolar morphology was analyzed by fluorescence microscopy. […] (B) Quantification of the various categories for cells treated with either DMSO or hypoculoside or hypoculine is plotted (N = 100 cells). […]
Labeling of yeast cells with FM4-64 (Invitrogen) was done as previously reported. […] The images were acquired using an inverted fluorescence microscope ZEISS LSM 5 LIVE (Carl Zeiss, Oberkochen, Germany).

[5] = tested on: Candida albicans strain SC5314; test: Broth microdilution growth inhibition of Candida albicans (CLSI guidelines, OD600 after 24 h); format: cell-based; conditions: strain SC5314, OD600 nm after 24 hours, read-out: IC50 for inhibition of growth of C. albicans cells
Description: Figure 2 Hypoculoside has antifungal activity. (A) Workflow used in the purification and analysis of hypoculoside from Acremonium sp. F2434. (B) Structure of hypoculoside (8) and its aglycone derivative hypoculine (9). (C) Logarithmically growing Candida albicans cells were exposed to hypoculoside and amphotericin B at various concentrations in triplicates in a 96-well microplate. Growth of the cells was quantified by recording the absorbance at 600 nm after 24 hours. Growth (normalized with respect to DMSO-treated cells) is plotted against log of concentration of the compound. A picture of the microplate after 24 hours of incubation at 30 °C is shown in Supplementary Fig. S2A. (D) Effect of hypoculoside on the growth of Saccharomyces cerevisiae cells grown in YPD medium was analyzed in the similar way as for Candida albicans described above in C.
We evaluated the potency of hypoculoside by examining its effect on the growth of Candida albicans strain (SC5314) using the Clinical and Laboratory Standards Institute (CLSI) guidelines. We used the well-known antifungal amphotericin B as a positive control. We exposed logarithmically growing Candida albicans cells to hypoculoside and amphotericin B at various concentrations and monitored the growth by recording the OD600 nm after 24 hours. […]

fungi = tested on: fungi; design: method as in PMID 10654417; conditions: cited from earlier work
cancer cell lines = tested on: cancer cell lines; design: method as in PMID 18343365; conditions: cited from earlier work

Compound: CCCCCCCCCCCCCC[C@@H](O)[C@@H](O)[C@@H](N)CO [PHS, phytosphingosine, reference compound]
growth of the 5 hypoculoside-sensitive mutants compared with wild type strain [1]: lower in comparison to wild type strain
rescue of myriocin-induced inhibition [2]: completely rescued
concentration that completely inhibited the growth of wild type yeast cells ([3]; BY4743, YPD): 40 µM
inhibitory concentration relative to inhibitory concentration of hypoculoside [3]: about 4 fold
growth inhibition of Staphylococcus aureus (Staphylococcus aureus): inhibit the growth

Compound: CC(N)C(O)CCCCCCCCCCCCCCCCCCC(O)C(C)O (stereo not shown) [hypoculine]
cells with PI staining (BY4743 cells): less than 10%
cells with defective vacuoles [4]: 3%
concentration at which mutants still displayed significant growth ([1]; mutants except for pep8 and vps35 (vps20, vps27, vps36), YPD, 24 hours at 30 °C): > 200 µM
concentration that inhibited the growth of wild type cells ([3]; BY4743, YPD, 24 hours at 30 °C (Fig. 5A)): > 200 µM

Compound: CCCCCCC(=O)CCCCCC/C=C/C[C@@H](O)[C@H](O)[C@@](N)(CO)C(=O)O [Myriocin]
concentration that inhibited the growth of yeast cells ([2]; wild type BY4743, YPD, 24 hours at 30 °C): 3.11 µM

Compound: CCCCCCCCCCCCC/C=C/[C@@H](O)[C@@H](N)CO [sphingosine, (2S,3R,4E)-2-amino-4-octadecen-1,3-diol]
growth inhibition of Staphylococcus aureus (Staphylococcus aureus): inhibit the growth

Compound: CCCCCCCCCCCCCCC[C@@H](O)[C@@H](N)CO [DHS, dihydrosphingosine, reference compound]
growth of the 5 hypoculoside-sensitive mutants compared with wild type strain [1]: lower in comparison to wild type strain
rescue of myriocin-induced inhibition [2]: completely rescued
concentration that completely inhibited the growth of wild type yeast cells ([3]; BY4743, YPD): 40 µM
inhibitory concentration relative to inhibitory concentration of hypoculoside [3]: about 4 fold
growth inhibition of Staphylococcus aureus (Staphylococcus aureus): inhibit the growth

IC50 [5]: 0.032 µM
Compound: C[C@@H]1[C@H](O)[C@@H](C)/C=C/C=C/C=C/C=C/C=C/C=C/C=C/[C@H](O[C@@H]2O[C@H](C)[C@@H](O)[C@H](N)[C@@H]2O)C[C@@H]2O[C@](O)(C[C@@H](O)C[C@@H](O)[C@H](O)CC[C@@H](O)C[C@@H](O)CC(=O)O[C@H]1C)C[C@H](O)[C@H]2C(=O)O [amphotericin B, reference compound]

Compound: C[C@@H](N)[C@H](O)CCCCCCCCCCCCCCC(=O)CCCCCCC[C@@H](O)[C@@H](N)CO [Oceanin]
toxicity to fungi compared with oceanapiside (fungi): considerably more toxic to fungi

Compound: CCCCCCCCCCCCCCC[C@@H](O)[C@H](C)N [spisulosine, 1-deoxysphinganine]
activity against cancer cell lines (cancer cell lines): potent activity
